Like-named read-outs stand apart in the source and are kept apart here.
How the values were obtained:
[1] = target: MRP4 (Homo sapiens, UniProt O15439); experiment: Transporter inhibition; format: in vitro ADME; conditions: clinically relevant concentrations
[2] = Food effect study: safety and tolerability; format: in vivo, human; conditions: fed and fasted
Method: Plasma samples were collected pre-dose and at predetermined time intervals up to 48 hours after dosing. Atogepant plasma concentrations were determined using a validated LC-MS/MS assay and the pharmacokinetic (PK) parameters were calculated using WinNonlin. A linear mixed-effects model with sequence, study intervention, and period as fixed effects, and participant nested within sequence as a random effect was used to compare the natural logarithm transformed values of atogepant PK parameters AUC0-t, AUC0-inf, and Cmax. Safety was monitored via ECGs, vital signs, clinical labs, and adverse events.

[3] = test system: CYP3A4; experiment: CYP induction; format: in vitro ADME; conditions: clinically relevant concentrations
[4] = test system: CYP2B6; experiment: CYP induction; format: in vitro ADME; conditions: clinically relevant concentrations
[5] = target: CYP2C8 (Homo sapiens, UniProt P10632); experiment: In vitro CYP inhibition; format: in vitro ADME; conditions: clinically relevant concentrations
Chain of CYP2C8 (P10632 whole entry): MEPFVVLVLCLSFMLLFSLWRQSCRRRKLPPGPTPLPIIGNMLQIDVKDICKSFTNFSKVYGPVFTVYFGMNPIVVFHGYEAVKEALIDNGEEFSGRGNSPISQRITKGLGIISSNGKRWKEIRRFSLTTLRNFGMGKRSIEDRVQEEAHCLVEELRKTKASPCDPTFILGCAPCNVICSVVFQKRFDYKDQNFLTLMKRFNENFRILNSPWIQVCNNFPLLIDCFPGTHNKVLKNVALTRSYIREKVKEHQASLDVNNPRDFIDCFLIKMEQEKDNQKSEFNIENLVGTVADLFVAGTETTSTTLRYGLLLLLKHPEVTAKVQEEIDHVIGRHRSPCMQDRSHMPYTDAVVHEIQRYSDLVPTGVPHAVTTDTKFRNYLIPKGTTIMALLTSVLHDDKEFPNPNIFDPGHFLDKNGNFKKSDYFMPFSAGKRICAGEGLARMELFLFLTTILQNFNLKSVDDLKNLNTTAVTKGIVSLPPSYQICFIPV

[6] = target: BSEP (Homo sapiens, UniProt O95342); experiment: Transporter inhibition; format: in vitro ADME; conditions: clinically relevant concentrations
[7] = Plasma protein binding in human plasma; format: in vitro ADME; conditions: human plasma
[8] = test system: plasma protein; experiment: Plasma protein binding in human plasma; format: in vitro ADME; conditions: range of 0.1 to 10 μM
[9] = Atogepant-esomeprazole interaction study: safety; format: in vivo, human; conditions: atogepant 60 mg alone or with esomeprazole magnesium 40 mg
Method: A phase 1, open-label, 2-intervention, single-sequence, nonrandomized, crossover, drug-drug interaction study was conducted to evaluate the effects of multiple-dose esomeprazole magnesium 40 mg on pharmacokinetics (PK) and safety of co-administered single-dose atogepant 60 mg in healthy adults.

[10] = Food effect study (high-fat meal), atogepant IR tablet: plasma PK; format: in vivo, human; conditions: for AUC(0-inf) / AUC(0-t) / Cmax / Tmax / Vd/F: both sexes, human, plasma, oral, 60 mg; for Vd/F: read-out: Vz/F
Method: A single-center, randomized, open-label, single-dose, 2-period cross-over study was conducted to evaluate the effect of a high-fat meal on the systemic exposure of atogepant following single-dose administration of an immediate release (IR) tablet in healthy adult participants. Secondary objectives were to evaluate the secondary PK parameters of atogepant following single-dose administration of an IR tablet formulation of atogepant in healthy participants under fasted and fed conditions; and to evaluate the safety and tolerability profiles of single-dose atogepant in healthy adult participants under fed and fasted conditions. […] Plasma samples were collected pre-dose and at predetermined time intervals up to 48 hours after dosing. Atogepant plasma concentrations were determined using a validated LC-MS/MS assay and the pharmacokinetic (PK) parameters were calculated using WinNonlin. A linear mixed-effects model with sequence, study intervention, and period as fixed effects, and participant nested within sequence as a random effect was used to compare the natural logarithm transformed values of atogepant PK parameters AUC0-t, AUC0-inf, and Cmax. Safety was monitored via ECGs, vital signs, clinical labs, and adverse events. […] Screening occurred within 21 days before dosing (Days −21 to −1). The study intervention period was scheduled for a total of 11 days (Days −1 to 10), and the follow-up visit occurred with serum chemistry on day 38 (±3), (30 [±3] days after the last dose on Day 8). PK blood samples for analysis of plasma atogepant concentrations were collected starting on Days 1 (period 1) and 8 (period 2); at 0 hour (predose) and 0.5, 1, 1.5, 2, 3, 4, 6, 8, 12, 16, 24, 36, and 48 hours postdose. • Linear mixed effects model with natural logarithm-transformed values of AUC0-t, AUC0-inf, and Cmax, as the dependent variable and terms for study intervention, sequence, and period as fixed independent variables and participant nested in sequence as a random effect.

[11] = target: CYP1A2 (Homo sapiens, UniProt P05177); experiment: In vitro CYP inhibition; format: in vitro ADME; conditions: clinically relevant concentrations
Chain of CYP1A2 (P05177 whole entry): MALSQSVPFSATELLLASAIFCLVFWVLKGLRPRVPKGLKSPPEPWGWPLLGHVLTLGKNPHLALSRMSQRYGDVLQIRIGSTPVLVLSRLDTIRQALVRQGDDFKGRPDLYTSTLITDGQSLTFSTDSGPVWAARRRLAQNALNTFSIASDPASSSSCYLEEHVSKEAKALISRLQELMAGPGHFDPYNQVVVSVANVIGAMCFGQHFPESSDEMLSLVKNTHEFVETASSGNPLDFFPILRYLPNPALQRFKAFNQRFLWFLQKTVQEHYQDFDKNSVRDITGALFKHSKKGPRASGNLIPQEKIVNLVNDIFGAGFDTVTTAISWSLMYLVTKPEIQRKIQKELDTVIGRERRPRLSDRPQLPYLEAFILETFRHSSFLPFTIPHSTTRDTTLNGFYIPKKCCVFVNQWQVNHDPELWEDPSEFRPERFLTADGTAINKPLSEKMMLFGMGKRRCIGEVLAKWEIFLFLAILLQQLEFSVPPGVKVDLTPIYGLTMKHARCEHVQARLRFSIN

[12] = target: P-gp (Homo sapiens, UniProt P08183); experiment: Transporter substrate; format: in vitro ADME
Chain of P-gp (P08183 whole entry): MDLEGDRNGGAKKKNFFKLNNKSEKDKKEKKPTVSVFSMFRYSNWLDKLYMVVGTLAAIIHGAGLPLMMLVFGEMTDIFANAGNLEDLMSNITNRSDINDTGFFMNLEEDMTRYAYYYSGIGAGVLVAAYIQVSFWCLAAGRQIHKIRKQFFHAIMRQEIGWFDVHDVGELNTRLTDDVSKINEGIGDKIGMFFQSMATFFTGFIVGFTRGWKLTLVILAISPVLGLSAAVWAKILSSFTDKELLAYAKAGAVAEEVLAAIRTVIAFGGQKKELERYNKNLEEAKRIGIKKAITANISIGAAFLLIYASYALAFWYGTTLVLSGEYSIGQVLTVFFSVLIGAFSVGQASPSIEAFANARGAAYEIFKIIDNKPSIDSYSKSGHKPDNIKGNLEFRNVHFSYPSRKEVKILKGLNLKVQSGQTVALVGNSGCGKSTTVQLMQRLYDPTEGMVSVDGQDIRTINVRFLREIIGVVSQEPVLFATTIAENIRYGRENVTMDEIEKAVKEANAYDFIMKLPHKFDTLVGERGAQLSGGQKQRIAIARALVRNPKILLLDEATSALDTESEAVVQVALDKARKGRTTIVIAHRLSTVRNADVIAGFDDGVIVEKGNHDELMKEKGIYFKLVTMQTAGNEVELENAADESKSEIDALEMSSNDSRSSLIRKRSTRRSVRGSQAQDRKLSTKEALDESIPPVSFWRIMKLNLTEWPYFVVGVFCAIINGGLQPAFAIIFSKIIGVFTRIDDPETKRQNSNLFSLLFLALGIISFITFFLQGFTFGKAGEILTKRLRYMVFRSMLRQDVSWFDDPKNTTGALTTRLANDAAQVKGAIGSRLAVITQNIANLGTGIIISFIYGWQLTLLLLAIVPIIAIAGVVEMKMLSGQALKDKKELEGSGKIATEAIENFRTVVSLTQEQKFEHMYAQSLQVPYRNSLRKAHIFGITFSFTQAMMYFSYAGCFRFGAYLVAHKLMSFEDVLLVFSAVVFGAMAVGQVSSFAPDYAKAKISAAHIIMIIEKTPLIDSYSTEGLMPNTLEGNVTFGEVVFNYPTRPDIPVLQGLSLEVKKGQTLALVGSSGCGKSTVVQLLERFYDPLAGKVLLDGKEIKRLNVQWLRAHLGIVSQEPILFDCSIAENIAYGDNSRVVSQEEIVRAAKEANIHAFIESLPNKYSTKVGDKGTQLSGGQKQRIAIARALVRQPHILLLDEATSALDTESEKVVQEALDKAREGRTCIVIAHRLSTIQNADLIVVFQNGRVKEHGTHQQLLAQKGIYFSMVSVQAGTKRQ

[13] = target: UGT1A1 (Homo sapiens, UniProt P22309); experiment: Enzyme inhibition; format: in vitro ADME; conditions: clinically relevant concentrations
Chain of UGT1A1 (P22309 26-533): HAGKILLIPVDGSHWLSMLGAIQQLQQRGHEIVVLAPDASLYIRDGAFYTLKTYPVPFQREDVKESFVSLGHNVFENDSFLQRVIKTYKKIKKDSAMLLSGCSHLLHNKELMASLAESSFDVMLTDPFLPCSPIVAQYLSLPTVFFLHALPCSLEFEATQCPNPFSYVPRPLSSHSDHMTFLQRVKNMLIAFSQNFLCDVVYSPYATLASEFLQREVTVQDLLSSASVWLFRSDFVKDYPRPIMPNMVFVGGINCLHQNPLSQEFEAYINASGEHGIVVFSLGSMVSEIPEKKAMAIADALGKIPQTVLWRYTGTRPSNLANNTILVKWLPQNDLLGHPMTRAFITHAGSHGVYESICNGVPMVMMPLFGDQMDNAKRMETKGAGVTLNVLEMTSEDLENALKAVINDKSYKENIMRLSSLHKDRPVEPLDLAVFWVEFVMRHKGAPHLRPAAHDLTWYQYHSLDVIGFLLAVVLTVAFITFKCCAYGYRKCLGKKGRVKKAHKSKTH

[14] = Study Intervention A: 1 × 60 mg IR tablet, fed
[15] = Study Intervention B: 1 × 60 mg IR tablet, fasted
[16] = All participants (N = 32), Treatments A, B1, B2
[17] = Treatment A: atogepant 60 mg alone (N = 32)
[18] = Treatment B1: atogepant 60 mg + rifampin 600 mg Day 7, rifampin Days 8-11 (N = 31)
[19] = Treatment B2: atogepant 60 mg + rifampin 600 mg Day 12, rifampin Day 13 (N = 31)
[20] = after Treatment B1 (atogepant + rifampin)
[21] = during the study, all treatments
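Wherever Deaths is given: safety population of participants given at least one dose, adverse events recorded through clinical assessment across the whole study.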
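Wherever TEAE leading to treatment discontinuation is given: safety population of participants given at least one dose, adverse events recorded through clinical assessment across the whole study.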
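Wherever Treatment-Emergent Serious Adverse Events (TESAE) is given: safety population of participants given at least one dose, adverse events recorded through clinical assessment across the whole study.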
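Wherever Treatment-emergent adverse events (TEAE) is given: safety population of participants given at least one dose, adverse events recorded through clinical assessment across the whole study.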

Chain of MRP4 (O15439 whole entry): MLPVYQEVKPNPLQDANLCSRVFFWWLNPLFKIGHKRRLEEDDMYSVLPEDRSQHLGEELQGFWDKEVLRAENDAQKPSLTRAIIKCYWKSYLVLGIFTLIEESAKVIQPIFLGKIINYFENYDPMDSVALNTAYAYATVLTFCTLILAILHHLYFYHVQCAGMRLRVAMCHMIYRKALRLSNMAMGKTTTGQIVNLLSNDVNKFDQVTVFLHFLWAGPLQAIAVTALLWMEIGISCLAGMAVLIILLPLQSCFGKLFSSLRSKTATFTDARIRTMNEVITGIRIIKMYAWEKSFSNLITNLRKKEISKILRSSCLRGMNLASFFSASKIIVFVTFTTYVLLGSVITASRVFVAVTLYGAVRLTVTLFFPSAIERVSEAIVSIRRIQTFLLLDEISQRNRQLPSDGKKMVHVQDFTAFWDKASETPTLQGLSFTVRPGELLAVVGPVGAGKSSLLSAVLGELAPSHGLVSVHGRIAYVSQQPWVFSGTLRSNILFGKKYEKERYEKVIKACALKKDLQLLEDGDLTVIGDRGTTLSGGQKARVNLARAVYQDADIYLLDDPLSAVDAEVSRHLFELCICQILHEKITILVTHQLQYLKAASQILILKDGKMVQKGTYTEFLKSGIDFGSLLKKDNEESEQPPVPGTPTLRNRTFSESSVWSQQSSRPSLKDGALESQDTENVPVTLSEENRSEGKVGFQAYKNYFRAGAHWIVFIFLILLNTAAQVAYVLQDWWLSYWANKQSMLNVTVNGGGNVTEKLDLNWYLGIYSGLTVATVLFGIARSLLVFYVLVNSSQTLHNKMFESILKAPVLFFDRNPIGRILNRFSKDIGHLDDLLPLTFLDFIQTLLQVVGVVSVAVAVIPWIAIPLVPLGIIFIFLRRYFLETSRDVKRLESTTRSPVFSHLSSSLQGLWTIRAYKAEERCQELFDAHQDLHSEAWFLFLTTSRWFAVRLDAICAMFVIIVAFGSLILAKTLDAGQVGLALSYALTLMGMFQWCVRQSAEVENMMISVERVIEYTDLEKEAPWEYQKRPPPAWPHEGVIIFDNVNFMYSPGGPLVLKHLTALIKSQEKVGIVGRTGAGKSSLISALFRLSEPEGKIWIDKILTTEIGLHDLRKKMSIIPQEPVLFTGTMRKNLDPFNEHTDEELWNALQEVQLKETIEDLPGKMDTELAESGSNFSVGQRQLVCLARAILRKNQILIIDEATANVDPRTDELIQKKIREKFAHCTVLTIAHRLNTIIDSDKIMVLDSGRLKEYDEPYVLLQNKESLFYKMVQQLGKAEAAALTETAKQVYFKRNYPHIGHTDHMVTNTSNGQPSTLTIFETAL

**Q.** What does the source list for `C[C@@H]1[C@H](c2c(F)ccc(F)c2F)C[C@H](NC(=O)c2cnc3c(c2)C[C@@]2(C3)C(=O)Nc3ncccc32)C(=O)N1CC(F)(F)F` [atogepant, (3′S)-N-[(3S,5S,6R)-6-methyl-2-oxo-1-(2,2,2-trifluoroethyl)-5-(2,3,6-trifluorophenyl)piperidin-3-yl]-2′-oxo-1′,2′,5,7-tetrahydrospiro[cyclopenta[b]pyridine-6,3′-pyrrolo[2,3-b]pyridine]-3-carboxamide]?
**A.** inhibition of MRP4 [1]: not an inhibitor; participants with TEAEs considered related to study intervention ([2]; overall): 15%; participants with arthralgia ([2]; overall): 10.0%; participants with back pain ([2]; overall): 10.0%; participants with treatment emergent AEs (TEAEs) ([2]; overall): 35.0%; safety and tolerability ([2]; single doses of 60-mg IR formulation): safe and well-tolerated; induction of CYP3A4 [3]: not an inducer; induction of CYP2B6 [4]: not an inducer; inhibition of CYP2C8 [5]: not an inhibitor; inhibition of BSEP [6]: not an inhibitor; fraction unbound [7]: ~0.047; concentration dependence of plasma protein binding [8]: not concentration-dependent; safety and tolerability [9]: safe and tolerated; CL/F [10, 14]: 26.10 L/h; Tlag (median) [10, 14]: 0 h; tt/2 [10, 14]: 9.41 h; λz [10, 14]: 0.0840 h⁻¹; CL/F [10, 15]: 21.03 L/h; Tlag (median) [10, 15]: 0 h; tt/2 [10, 15]: 9.71 h; λz [10, 15]: 0.0799 h⁻¹; AUC(0-inf) ([10]; Fasted (Ref), read-out: AUC0-inf GLSM): 3160 ng·h/mL; AUC(0-t) ([10]; Fasted (Ref), read-out: AUC0-t GLSM): 3130 ng·h/mL; Cmax ([10]; Fasted (Ref), read-out: Cmax GLSM): 677 ng/mL; Tmax ([10]; Fasted (ref), read-out: Tmax Median): 2.01 h; AUC(0-inf) ([10]; Fed (Test), read-out: AUC0-inf GLSM): 2610 ng·h/mL; AUC(0-t) ([10]; Fed (Test), read-out: AUC0-t GLSM): 2560 ng·h/mL; Cmax ([10]; Fed (Test), read-out: Cmax GLSM): 527 ng/mL; Tmax ([10]; Fed (Test), read-out: Tmax Median): 2.01 h; AUC(0-inf) ([10]; Study Intervention A: 1 × 60 mg IR tablet, fed, read-out: AUC0-inf): 3200 ng·h/mL; AUC(0-t) ([10]; Study Intervention A: 1 × 60 mg IR tablet, fed, read-out: AUC0-t): 3090 ng·h/mL; Cmax ([10]; Study Intervention A: 1 × 60 mg IR tablet, fed, read-out: Cmax): 594 ng/mL; Tmax ([10]; Study Intervention A: 1 × 60 mg IR tablet, fed, read-out: Tmax (median)): 2.01 h; Vd/F [10, 14]: 368 L; AUC(0-inf) ([10]; Study Intervention B: 1 × 60 mg IR tablet, fasted, read-out: AUC0-inf): 3490 ng·h/mL; AUC(0-t) ([10]; Study Intervention B: 1 × 60 mg IR tablet, fasted, read-out: AUC0-t): 3460 ng·h/mL; Cmax ([10]; Study Intervention B: 1 × 60 mg IR tablet, fasted, read-out: Cmax): 732 ng/mL; Tmax ([10]; Study Intervention B: 1 × 60 mg IR tablet, fasted, read-out: Tmax (median)): 2.01 h; Vd/F [10, 15]: 299 L; Tmax ([10]; fed vs fasted, read-out: Tmax Median of Paired Differences (Test Minus Reference)): 0.5 h; AUC0-inf Ratio of GLSMs Test/Ref ([10]; fed vs fasted): 82.53%; AUC0-t Ratio of GLSMs Test/Ref ([10]; fed vs fasted): 81.70%; Cmax Ratio of GLSMs Test/Ref ([10]; fed vs fasted): 77.90%; effect on median time to maximum atogepant plasma concentration ([10]; high-fat meal): no effect; reduction of AUC ([10]; high-fat meal (fed) vs fasted): approximately 18%; Deaths [16]: 0 n (%); TEAE leading to treatment discontinuation [16]: 0 n (%); Treatment-Emergent Serious Adverse Events (TESAE) [16]: 0 n (%); Treatment-emergent adverse events (TEAE) [16]: 11 (34.4) n (%); Deaths [17]: 0 n (%); TEAE leading to treatment discontinuation [17]: 0 n (%); Treatment-Emergent Serious Adverse Events (TESAE) [17]: 0 n (%); Treatment-emergent adverse events (TEAE) [17]: 0 n (%); Deaths [18]: 0 n (%); TEAE leading to treatment discontinuation [18]: 0 n (%); Treatment-Emergent Serious Adverse Events (TESAE) [18]: 0 n (%); Treatment-emergent adverse events (TEAE) [18]: 8 (25.8) n (%); Deaths [19]: 0 n (%); TEAE leading to treatment discontinuation [19]: 0 n (%); Treatment-Emergent Serious Adverse Events (TESAE) [19]: 0 n (%); Treatment-emergent adverse events (TEAE) [19]: 5 (16.1) n (%); participants with at least one treatment-related TEAE [20]: 12.9%; participants with headache (most common TEAE) [20]: 6.5%; participants with at least one treatment-related TEAE (after Treatment B2 (atogepant + rifampin)): 6.5%; changes in clinical laboratory test results, vital signs, ECG findings (atogepant alone or with rifampin): no notable changes from baseline; tolerability (atogepant and rifampin, healthy participants): well tolerated; participants with at least one treatment-related TEAE [21]: 15.6%; participants with mild TEAEs [21]: 31.3%; participants with moderate TEAEs (during the study, after Treatment B1): 3.1%; participants with treatment-related nausea (during the study, one after B1, one after B2): 6.3%; inhibition of CYP1A2 [11]: not an inhibitor; substrate of P-gp [12]: substrate; inhibition of UGT1A1 [13]: does not inhibit
